Experimental data: PubChem BioAssay AID1963853 (Molecular Pharmacology Branch, DTP, NCI, 2024)

Tested on: 266295-075-R-J1-PDC spheroid viability
Test: Anticancer human tumor 266295-075-R-J1-PDC patient-derived head and neck squamous carcinoma cell line growth inhibition [POLQ]
Conditions: spheroids with HUVEC and MSC; for IC50: curve of first compound; for viability, T/C: stronger effect = lower value; active = viability on the fitted dose curve at most 10% of control; inactive = the rest
How it was run: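 Growth inhibition in 3D: complex spheroids (tumor PDC, HUVEC, MSC) treated with POLQ inhibitor combinations; where Cmax unknown, highest tested concentration 10 microM, except SN-38 at 1 microM.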

[1] = second compound 0.0316 µM, first compound 0.0316 µM
[2] = second compound 0.0316 µM, first compound 0.1 µM
[3] = second compound 0.0316 µM, first compound 0.316 µM
[4] = second compound 0.0316 µM, first compound 1 µM
[5] = second compound 0.0316 µM, first compound 3.16 µM
[6] = second compound 0.0316 µM, first compound 10 µM
[7] = second compound 0.1 µM, first compound 0.0316 µM
[8] = second compound 0.1 µM, first compound 0.1 µM
[9] = second compound 0.1 µM, first compound 0.316 µM
[10] = second compound 0.1 µM, first compound 1 µM
[11] = second compound 0.1 µM, first compound 3.16 µM
[12] = second compound 0.1 µM, first compound 10 µM
[13] = second compound 0.316 µM, first compound 0.0316 µM
[14] = second compound 0.316 µM, first compound 0.1 µM
[15] = second compound 0.316 µM, first compound 0.316 µM
[16] = second compound 0.316 µM, first compound 1 µM
[17] = second compound 0.316 µM, first compound 3.16 µM
[18] = second compound 0.316 µM, first compound 10 µM
[19] = second compound 1 µM, first compound 0.0316 µM
[20] = second compound 1 µM, first compound 0.1 µM
[21] = second compound 1 µM, first compound 0.316 µM
[22] = second compound 1 µM, first compound 1 µM
[23] = second compound 1 µM, first compound 3.16 µM
[24] = second compound 1 µM, first compound 10 µM
[25] = second compound 3.16 µM, first compound 0.0316 µM
[26] = second compound 3.16 µM, first compound 0.1 µM
[27] = second compound 3.16 µM, first compound 0.316 µM
[28] = second compound 3.16 µM, first compound 1 µM
[29] = second compound 3.16 µM, first compound 3.16 µM
[30] = second compound 3.16 µM, first compound 10 µM
[31] = second compound 10 µM, first compound 0.0316 µM
[32] = second compound 10 µM, first compound 0.1 µM
[33] = second compound 10 µM, first compound 0.316 µM
[34] = second compound 10 µM, first compound 1 µM
[35] = second compound 10 µM, first compound 3.16 µM
[36] = second compound 10 µM, first compound 10 µM
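Note: spheroids exposed to compounds for seven days before readout.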

CC(C)n1c(=O)n(C)c2cnc3cc(F)c(-c4ccc(OCCCN5CCCCC5)nc4)cc3c21 + Nc1ccc(C#CCN(C(=O)Cc2ncc(C(F)(F)F)cc2C(F)(F)F)c2ccc(F)cc2)nn1
inactive: viability, T/C [1] 105% | viability, T/C [2] 99.3% | viability, T/C [3] 104% | viability, T/C [4] 106% | viability, T/C [5] 82.8% | viability, T/C [6] 76.3% | viability, T/C [7] 93.8% | viability, T/C [8] 103% | viability, T/C [9] 88% | viability, T/C [10] 80.6% | viability, T/C [11] 96% | viability, T/C [12] 64.5% | viability, T/C [13] 110% | viability, T/C [14] 105% | viability, T/C [15] 90.2% | viability, T/C [16] 91.3% | viability, T/C [17] 89.9% | viability, T/C [18] 66.7% | viability, T/C [19] 93.5% | viability, T/C [20] 114% | viability, T/C [21] 99.4% | viability, T/C [22] 90% | viability, T/C [23] 82.2% | viability, T/C [24] 65.3% | viability, T/C [25] 121% | viability, T/C [26] 118% | viability, T/C [27] 103% | viability, T/C [28] 96.3% | viability, T/C [29] 92.4% | viability, T/C [30] 87.9% | viability, T/C [31] 96.5% | viability, T/C [32] 87.9% | viability, T/C [33] 118% | viability, T/C [34] 93.3% | viability, T/C [35] 66.4% | viability, T/C [36] 71.8%
> 10 µM: IC50 (second compound 0.0316 µM) | IC50 (second compound 0.1 µM) | IC50 (second compound 0.316 µM) | IC50 (second compound 1 µM) | IC50 (second compound 3.16 µM) | IC50 (second compound 10 µM)

CC1COCCN1c1cc(C2(S(C)(=N)=O)CC2)nc(-c2ccnc3[nH]ccc23)n1 (stereo not given) + Nc1ccc(C#CCN(C(=O)Cc2ncc(C(F)(F)F)cc2C(F)(F)F)c2ccc(F)cc2)nn1
8.58 µM: IC50 (second compound 0.316 µM)
inactive: viability, T/C [1] 110% | viability, T/C [2] 93.3% | viability, T/C [3] 83.4% | viability, T/C [4] 75.5% | viability, T/C [5] 67.5% | viability, T/C [6] 63% | viability, T/C [7] 102% | viability, T/C [8] 116% | viability, T/C [9] 92% | viability, T/C [10] 93.9% | viability, T/C [11] 80.2% | viability, T/C [12] 57.2% | viability, T/C [13] 81.9% | viability, T/C [14] 102% | viability, T/C [15] 92.5% | viability, T/C [16] 79% | viability, T/C [17] 78.4% | viability, T/C [18] 45.6% | viability, T/C [19] 97.8% | viability, T/C [20] 109% | viability, T/C [21] 96.6% | viability, T/C [22] 87.6% | viability, T/C [23] 67.6% | viability, T/C [24] 48.9% | viability, T/C [25] 89.9% | viability, T/C [26] 141% | viability, T/C [27] 100% | viability, T/C [28] 92.8% | viability, T/C [29] 69.4% | viability, T/C [30] 57.3% | viability, T/C [31] 95.4% | viability, T/C [32] 99% | viability, T/C [33] 95.5% | viability, T/C [34] 92.7% | viability, T/C [35] 70.6% | viability, T/C [36] 62.9%
> 10 µM: IC50 (second compound 0.0316 µM) | IC50 (second compound 0.1 µM) | IC50 (second compound 3.16 µM) | IC50 (second compound 10 µM)
9.41 µM: IC50 (second compound 1 µM)

CCc1cc2c(N3CCc4c(cc(Cn5ccnc5)cc4-c4cn(C)nc4C(F)(F)F)C3=O)ccnc2c(OC)n1 + Nc1ccc(C#CCN(C(=O)Cc2ncc(C(F)(F)F)cc2C(F)(F)F)c2ccc(F)cc2)nn1
inactive: viability, T/C [1] 92.7% | viability, T/C [2] 102% | viability, T/C [3] 105% | viability, T/C [4] 141% | viability, T/C [5] 183% | viability, T/C [6] 159% | viability, T/C [7] 100% | viability, T/C [8] 110% | viability, T/C [9] 91.7% | viability, T/C [10] 135% | viability, T/C [11] 127% | viability, T/C [12] 132% | viability, T/C [13] 116% | viability, T/C [14] 120% | viability, T/C [15] 110% | viability, T/C [16] 138% | viability, T/C [17] 148% | viability, T/C [18] 127% | viability, T/C [19] 109% | viability, T/C [20] 117% | viability, T/C [21] 97.5% | viability, T/C [22] 114% | viability, T/C [23] 134% | viability, T/C [24] 115% | viability, T/C [25] 99.8% | viability, T/C [26] 103% | viability, T/C [27] 122% | viability, T/C [28] 102% | viability, T/C [29] 110% | viability, T/C [30] 130% | viability, T/C [31] 103% | viability, T/C [32] 97.7% | viability, T/C [33] 118% | viability, T/C [34] 115% | viability, T/C [35] 133% | viability, T/C [36] 121%
> 10 µM: IC50 (second compound 0.0316 µM) | IC50 (second compound 0.1 µM) | IC50 (second compound 0.316 µM) | IC50 (second compound 1 µM) | IC50 (second compound 3.16 µM) | IC50 (second compound 10 µM)

COc1ccc([C@@H](O)c2cc(-c3ncnc4cc(N5CCOCC5)ccc34)c(F)cc2Cl)nn1 + Nc1ccc(C#CCN(C(=O)Cc2ncc(C(F)(F)F)cc2C(F)(F)F)c2ccc(F)cc2)nn1
2.71 µM: IC50 (second compound 1 µM)
3.24 µM: IC50 (second compound 3.16 µM)
inactive: viability, T/C [1] 87.8% | viability, T/C [2] 91.7% | viability, T/C [3] 72.4% | viability, T/C [4] 89% | viability, T/C [5] 59.4% | viability, T/C [6] 38% | viability, T/C [7] 78.3% | viability, T/C [8] 89.7% | viability, T/C [9] 71.6% | viability, T/C [10] 73.9% | viability, T/C [11] 43.2% | viability, T/C [12] 40% | viability, T/C [13] 93% | viability, T/C [14] 94.9% | viability, T/C [15] 71.4% | viability, T/C [16] 75.4% | viability, T/C [17] 57.4% | viability, T/C [18] 37.7% | viability, T/C [19] 113% | viability, T/C [20] 120% | viability, T/C [21] 81.1% | viability, T/C [22] 71% | viability, T/C [23] 49.3% | viability, T/C [24] 29.6% | viability, T/C [25] 98.6% | viability, T/C [26] 109% | viability, T/C [27] 82.8% | viability, T/C [28] 65.9% | viability, T/C [29] 55% | viability, T/C [30] 38.2% | viability, T/C [31] 104% | viability, T/C [32] 94.2% | viability, T/C [33] 87.9% | viability, T/C [34] 61.2% | viability, T/C [35] 46.8% | viability, T/C [36] 42.6%
5.25 µM: IC50 (second compound 0.0316 µM)
2.49 µM: IC50 (second compound 10 µM)
4.85 µM: IC50 (second compound 0.316 µM)
2.47 µM: IC50 (second compound 0.1 µM)

Cn1ncnc1[C@H]1c2n[nH]c(=O)c3cc(F)cc(c23)N[C@@H]1c1ccc(F)cc1 + Nc1ccc(C#CCN(C(=O)Cc2ncc(C(F)(F)F)cc2C(F)(F)F)c2ccc(F)cc2)nn1
inactive: viability, T/C (second compound 0.0316 µM, first compound 0.000316 µM) 86.1% | viability, T/C (second compound 0.0316 µM, first compound 0.001 µM) 95.8% | viability, T/C (second compound 0.0316 µM, first compound 0.00316 µM) 89.1% | viability, T/C (second compound 0.0316 µM, first compound 0.01 µM) 92.1% | viability, T/C [1] 79.7% | viability, T/C [2] 85.3% | viability, T/C (second compound 0.1 µM, first compound 0.000316 µM) 97.9% | viability, T/C (second compound 0.1 µM, first compound 0.001 µM) 107% | viability, T/C (second compound 0.1 µM, first compound 0.00316 µM) 91.8% | viability, T/C (second compound 0.1 µM, first compound 0.01 µM) 101% | viability, T/C [7] 88.5% | viability, T/C [8] 101% | viability, T/C (second compound 0.316 µM, first compound 0.000316 µM) 110% | viability, T/C (second compound 0.316 µM, first compound 0.001 µM) 114% | viability, T/C (second compound 0.316 µM, first compound 0.00316 µM) 92.1% | viability, T/C (second compound 0.316 µM, first compound 0.01 µM) 82.7% | viability, T/C [13] 93% | viability, T/C [14] 99.4% | viability, T/C (second compound 1 µM, first compound 0.000316 µM) 105% | viability, T/C (second compound 1 µM, first compound 0.001 µM) 96.3% | viability, T/C (second compound 1 µM, first compound 0.00316 µM) 78.6% | viability, T/C (second compound 1 µM, first compound 0.01 µM) 99% | viability, T/C [19] 105% | viability, T/C [20] 69.7% | viability, T/C (second compound 3.16 µM, first compound 0.000316 µM) 103% | viability, T/C (second compound 3.16 µM, first compound 0.001 µM) 101% | viability, T/C (second compound 3.16 µM, first compound 0.00316 µM) 98.5% | viability, T/C (second compound 3.16 µM, first compound 0.01 µM) 83.8% | viability, T/C [25] 87.9% | viability, T/C [26] 87.6% | viability, T/C (second compound 10 µM, first compound 0.000316 µM) 91.6% | viability, T/C (second compound 10 µM, first compound 0.001 µM) 103% | viability, T/C (second compound 10 µM, first compound 0.00316 µM) 110% | viability, T/C (second compound 10 µM, first compound 0.01 µM) 104% | viability, T/C [31] 88.5% | viability, T/C [32] 122%
> 0.1 µM: IC50 (second compound 0.0316 µM) | IC50 (second compound 0.1 µM) | IC50 (second compound 0.316 µM) | IC50 (second compound 1 µM) | IC50 (second compound 3.16 µM) | IC50 (second compound 10 µM)
